Laboratory results published in patent US7915291B2, “Hepatitis C virus inhibitors” (Bristol-Myers Squibb Company, priority 2002, dated 2011).
Where two headings read alike, the source gives them in different places.

Tests used:
[1] = tested on: HCV replicon in Huh7 cells; assay: HCV replicon cell-based assay; design: species or system HCV strain 1B; conditions: Hepatitis C virus, Huh-7; HCV replicon, Huh7 cells; read-out: EC50 range
[2] = biological target: HCV NS3/4A protease complex, BMS strain (UniProt P27958, C1454S/C1711G, species not given/STRAIN_BMS); assay: Recombinant HCV NS3/4A protease complex FRET peptide assay (BMS strain); format: biochemical, HCV genotype 1a
How it was run: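 Percent inhibition taken from the linear-range fluorescence slope relative to uninhibited control, read kinetically for about 15 min at 25° C. Enzyme (2-3 nM, BMS NS3/4A complex, lysine-tailed, Ni-NTA purified) met compound for 1 min before 2 μM FRET depsipeptide substrate started cleavage.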

[3] = read-out: IC50 range; NS3/4A BMS strain
[4] = NS3/4A BMS strain; read-out: IC50 range

Compound	EC50 [1] [nM]	IC50 [2, 3] [nM]	IC50 [2, 4] [nM]
C=C[C@@H]1CC1(NC(=O)[C@@H]1CC(Oc2nccc3cc(OC)ccc23)CN1C(=O)[C@@H](NC(=O)CC1CC1)C(C)(C)C)C(=O)NS(=O)(=O)C1CC1 (some centres unmarked) [Compound 58]	< 100	< 100	
C=C[C@@H]1C[C@]1(NC(=O)[C@@H]1CC(Oc2nccc3cc(OC)ccc23)CN1C(=O)[C@@H](NC(=O)OC(C)(C)C(Cl)(Cl)Cl)C(C)(C)C)C(=O)NS(=O)(=O)C1CC1 (some centres unmarked) [Compound 68]	< 100		< 100
C=C[C@@H]1C[C@]1(NC(=O)[C@@H]1C[C@@H](Oc2nccc3cc(OC)ccc23)CN1C(=O)[C@@H](N)[C@H](C)OC)C(=O)NS(=O)(=O)C1CC1 [Compound 100]	1000 to 10000	100 to 1000	
C=C[C@@H]1C[C@]1(NC(=O)[C@@H]1C[C@@H](Oc2nccc3c(OC)c(OC)ccc23)CN1C(=O)[C@@H](NC(=O)OC(C)(C)C)C(C)(C)C)C(=O)NS(=O)(=O)C1CC1 [Compound 272]	< 100		< 100
C=C[C@@H]1CC1(NC(=O)[C@@H]1CC(Oc2nccc3cc(OC)ccc23)CN1C(=O)[C@@H](NC(=O)OC1(C)CCCC1)C(C)(C)C)C(=O)NS(=O)(=O)C1CC1 (some centres unmarked) [Compound 69]	< 100	< 100	
C=CC1C[C@]1(NC(=O)[C@@H]1C[C@@H](Oc2nnc(O)c3ccccc23)CN1C(=O)[C@@H](NC(=O)OC(C)(C)C)C(C)(C)C)C(=O)NS(=O)(=O)C1CC1 (stereo partly drawn) [Compound 202, BOCNH-P3(L-t-BuGly)-P2[(4R)-(4-hydroxyphthalazine-1-oxo)-S -proline]P1(1R,2S VinylAcca)-CONHSO2Cyclopropane]	1000 to 10000		< 100
C=C[C@@H]1C[C@]1(NC(=O)[C@@H]1CC(Oc2nccc3cc(OC)ccc23)CN1C(=O)[C@@H](NC(=O)NC(C)(C)c1ccccc1)C(C)(C)C)C(=O)NS(=O)(=O)C1CC1 (some centres unmarked) [Compound 83]	100 to 1000		< 100
C=CC1C[C@]1(NC(=O)[C@@H]1C[C@@H](Oc2nccc3cc(OC(C)(C)C)ccc23)CN1C(=O)[C@@H](NC(=O)OC(C)(C)C)C(C)(C)C)C(=O)NS(=O)(=O)C1CC1 (stereo partly drawn) [Compound 193, BOCNH-P3(L-tert-BuGly)-P2[(4R)-(6-tert-butoxy isoquinolin-1-oxo)-S-proline]-P1(1R,2S Vinyl Acca)-CONHSO2-Cyclopropane]	100 to 1000		< 100
C=CC1C[C@]1(NC(=O)[C@@H]1C[C@@H](Oc2ccc3c(Cl)nccc3c2)CN1C(=O)[C@@H](NC(=O)OC(C)(C)C)C(C)(C)C)C(=O)NS(=O)(=O)C1CC1 (stereo partly drawn) [Compound 188, BOCNH-P3(L-tert-BuGly)-P2[(4R)-(1-chloro isoquinolin-6-oxo)-S -proline]-P1(1R,2S Vinyl Acca)-CONHSO2-Cyclopropane]	100 to 1000		< 100
C=CC1C[C@]1(NC(=O)[C@@H]1C[C@@H](Oc2nc(-c3nccs3)c(OC)c3ccccc23)CN1C(=O)[C@@H](NC(=O)OC(C)(C)C)C(C)(C)C)C(=O)NS(=O)(=O)C1CC1 (stereo partly drawn) [Compound 232, BOCNH-P3(L-t-BuGly)-P2[(4R)-(4-methoxy-3-thiazol-2-yl -isoquinolin-1-oxo)-S-proline]-P1(1R,2S VinylAcca)-CONHSO2Cyclopropane]	< 100		< 100
C=CC1C[C@]1(NC(=O)[C@@H]1C[C@@H](COc2ccnc(-c3cccs3)c2)CN1C(=O)[C@@H](NC(=O)OC)C(C)(C)C)C(=O)NS(=O)(=O)C1CC1 (some centres unmarked) [Compound 350]	10000 to 100000	100 to 1000	
C=C[C@@H]1C[C@]1(NC(=O)[C@@H]1C[C@@H](Oc2ccnc3cc(OC)ccc23)CN1C(=O)[C@@H](NC(=O)OC(C)(C)C)C(C)(C)C)C(=O)NS(=O)(=O)C1CC1 [Compound 375]	< 100		< 100
C=C[C@@H]1C[C@]1(NC(=O)[C@@H]1C[C@@H](Oc2cncc(-c3csc(C)n3)c2)CN1C(=O)[C@@H](NC(=O)OC(C)(C)C)C(C)(C)C)C(=O)NS(=O)(=O)C1CC1 [Compound 433]	1000 to 10000		100 to 1000
C=C[C@@H]1C[C@]1(NC(=O)[C@@H]1CC(Oc2nccc3cc(OC)ccc23)CN1C(=O)[C@@H](NC(=O)N(C)OC)C(C)(C)C)C(=O)NS(=O)(=O)C1CC1 (some centres unmarked) [Compound 78]	1000 to 10000		< 100
C=C[C@@H]1C[C@]1(NC(=O)[C@@H]1C[C@@H](Oc2nccc3c4c(ccc23)OC(F)(F)O4)CN1C(=O)[C@@H](NC(=O)OC(C)(C)C)C(C)(C)C)C(=O)NS(=O)(=O)C1CC1 [Compound 287]	100 to 1000		< 100
C=CC1C[C@]1(NC(=O)[C@@H]1C[C@@H](Oc2ccnc3c(C(F)(F)F)cccc23)CN1C(=O)[C@@H](NC(=O)OC(C)(C)C)C(C)(C)C)C(=O)NS(=O)(=O)C1CC1 (stereo partly drawn) [Compound 186, BOCNH-P3(L-tert-BuGly)-P2[(4R)-(8-trifluoromethyl quinolin-4-oxo)-S-proline]-P1(1R,2S Vinyl Acca)-CONHSO2-Cyclopropane]	< 100		< 100
